{"source": "patent US20090030037A1", "about": "“Sustained Release Formulation and Dosing Schedules of Leukotriene Synthesis Inhibitor for Human Therapy” (deCODE Genetics ehf., priority 2005, published 2009)", "key": {"[1]": {"tested_on": "Prostaglandin F", "assay": "Study DG-031-204: Prostaglandin F (PGF)", "type": "in vivo, human", "settings": "after 4 weeks of treatment", "procedure": "(§1) An additional single site, open label study was carried out to obtain biomarker and safety data on additional DG-031 doses (i.e., 1000 mg and 1500 mg). This study examined the safety, tolerability and dose-related effects of DG-031 on inflammatory biomarkers including: LTB4, hsCRP, and MPO. A total of 119 patients with a prior history of CAD and MI were randomized to receive either 1000 mg DG-031 (500 mg BID) or 1500 mg DG-031 (500 mg TID) daily for 4-6 weeks. Treatment with DG-031 in addition to the subject's standard care, medication, and treatment, was prescribed by the patient's cardiologist. A majority of the subjects received statin therapy before, during and after the study. Follow-up assessments were performed 2 weeks after the end of study drug administration.\nThe biomarkers were analyzed as described in Example 1. Statistical analysis of the data was carried out using a one-sample t-test on change from baseline with a two-sided nominal significance level of 0.050. Biomarker concentrations were log-transformed and a simple last observation carried forward (LOCF) scheme was used to impute missing observations.\nProstaglandin F (PGF) was measured at 2-week intervals."}, "[2]": {"assay": "Study DG-031-204: serum creatinine", "type": "in vivo, human", "settings": "both 500 mg BID and 500 mg TID groups", "procedure": "as §1\n(§2) Liver function tests (AST, ALT, GGT) were assessed weekly during study drug administration and two weeks after dosing. […] Serum creatinine (Cr) was measured weekly during study drug administration and two weeks after dosing. In both the 500 mg BID and 500 mg TID treatment groups, mean serum Cr concentrations increased 4-5% relative to baseline levels. At the 2-week follow up visit, mean serum Cr returned to baseline in the cohort treated for 4 weeks, but remained elevated in the group treated for 6 weeks. Creatine kinase (CK) measurements were obtained weekly during study drug administration and two weeks after dosing."}, "[3]": {"tested_on": "MPO", "assay": "Study DG-031-203: plasma MPO", "type": "in vivo, human", "settings": "250 mg TID, 6 hours after intake", "procedure": "The study also collected information on the dose-related effect of DG-031 on capacity for LTB4 production (ex vivo), plasma MPO, and serum-CRP. […] The pattern observed supported a concentration dependent pharmacologic effect of DG-031 on capacity for LTB4 production measured ex vivo. The effects on LTB4 production amounted to a 30% (p=0.016) and 25% (p=0.094) reduction with the 375 mg BID and 250 mg TID doses, respectively."}, "[4]": {"assay": "Study DG-031-204: steady state DG-031 plasma concentrations", "type": "in vivo, human", "settings": "for concentration at 0 h / concentration at 0.5 h / concentration at 1 h / concentration at 2 h / concentration at 4 h / concentration at 6 h: human, plasma, oral, 500 mg, read-out: Steady state DG-031 exposure, Geometric Mean; for concentration at 0 h: 0 hr post dose; for concentration at 0.5 h: 0.5 hr post dose; for concentration at 1 h: 1 hr post dose; for concentration at 2 h: 2 hr post dose; for concentration at 4 h: 4 hr post dose; for concentration at 6 h: 6 hr post dose", "procedure": "Blood samples were collected for determining DG-031 concentrations in a subset of patients (n=22). Samples were collected just prior to dosing and at 0.5, 1, 2, 4, and 6 hours following administration of DG-031 500 mg BID or TID."}, "[5]": {"settings": "asthma patients, cited from earlier work"}, "[6]": {"assay": "Study DG-031-204: liver function tests (AST, ALT, GGT)", "type": "in vivo, human", "settings": "500 mg BID or TID", "procedure": "as §1, §2"}, "[7]": {"assay": "Study DG-031-204: creatine kinase", "type": "in vivo, human", "settings": "500 mg BID or TID", "procedure": "as §1, §2"}}, "note": "Like-named read-outs stand apart in the source and are kept apart here."}
{"molecule": "O=C(O)[C@@H](c1ccc(OCc2ccc3ccccc3n2)cc1)C1CCCC1", "note": "[DG-031, (R)-(+)-alpha-cyclopentyl-4-(2-quinolinylmethoxy)-Benzeneacetic acid]", "values": [{"measurement": "Trends in PGF", "setting": "[1]", "value": "No significant trends"}, {"measurement": "Increase of mean serum Cr concentrations relative to baseline", "setting": "[2]", "value": "4-5%"}, {"measurement": "Reduction of plasma MPO levels", "setting": "[3]", "value": 37, "unit": "%"}, {"measurement": "DG-031 concentrations observed", "setting": "[4]; 500 mg BID or TID, subset n=22", "value": "up to 20.3 μg/mL"}, {"measurement": "Mean trough concentration", "setting": "[4]; 500 mg BID, steady state", "value": 4.3, "unit": "µg/mL"}, {"measurement": "Observed mean peak concentration", "setting": "[4]; 500 mg BID, steady state", "value": 8.8, "unit": "µg/mL"}, {"measurement": "Observed peak to trough fluctuation", "setting": "[4]; 12 hour period, BID dosing regimen", "value": "2-3 fold"}, {"measurement": "concentration at 0 h", "setting": "[4]; 500 mg BID", "value": 4300, "unit": "ng/mL"}, {"measurement": "concentration at 0.5 h", "setting": "[4]; 500 mg BID", "value": 4700, "unit": "ng/mL"}, {"measurement": "concentration at 1 h", "setting": "[4]; 500 mg BID", "value": 6100, "unit": "ng/mL"}, {"measurement": "concentration at 2 h", "setting": "[4]; 500 mg BID", "value": 8600, "unit": "ng/mL"}, {"measurement": "concentration at 4 h", "setting": "[4]; 500 mg BID", "value": 8800, "unit": "ng/mL"}, {"measurement": "concentration at 6 h", "setting": "[4]; 500 mg BID", "value": 7000, "unit": "ng/mL"}, {"measurement": "concentration at 0 h", "setting": "[4]; 500 mg TID", "value": 6900, "unit": "ng/mL"}, {"measurement": "concentration at 0.5 h", "setting": "[4]; 500 mg TID", "value": 6800, "unit": "ng/mL"}, {"measurement": "concentration at 1 h", "setting": "[4]; 500 mg TID", "value": 8500, "unit": "ng/mL"}, {"measurement": "concentration at 2 h", "setting": "[4]; 500 mg TID", "value": 10100, "unit": "ng/mL"}, {"measurement": "concentration at 4 h", "setting": "[4]; 500 mg TID", "value": 10000, "unit": "ng/mL"}, {"measurement": "concentration at 6 h", "setting": "[4]; 500 mg TID", "value": 7400, "unit": "ng/mL"}, {"measurement": "Safety and tolerability", "setting": "[5]; total daily dose 250-1000 mg, 14 days", "value": "safe and well tolerated"}, {"measurement": "Safety and tolerability", "setting": "[5]; total daily doses 100-1000 mg, 14-42 days", "value": "safe and well tolerated"}, {"measurement": "Mean liver function tests (AST, ALT, GGT)", "setting": "[6]", "value": "No adverse trends"}, {"measurement": "Mean CK concentrations", "setting": "[7]", "value": "No adverse trends"}]}
